Measurements published in ChEMBL document CHEMBL1201862, “PubChem BioAssay data set” (2004).
Active and inactive are the calls of the source.

What was measured:
Streptokinase A = target: T1, Streptokinase A (Streptococcus pyogenes serotype M1, UniProt P10520); experiment: S. pyogenes streptokinase expression inhibitors, potency, dose response, plasminogen activation absorbance, OD405 (AID 1914); format: functional, Streptococcus pyogenes M1 GAS;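 further: secreted streptokinase activity via plasminogen activation per viability signal from cell pellet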
T1 sequence (P10520 whole entry): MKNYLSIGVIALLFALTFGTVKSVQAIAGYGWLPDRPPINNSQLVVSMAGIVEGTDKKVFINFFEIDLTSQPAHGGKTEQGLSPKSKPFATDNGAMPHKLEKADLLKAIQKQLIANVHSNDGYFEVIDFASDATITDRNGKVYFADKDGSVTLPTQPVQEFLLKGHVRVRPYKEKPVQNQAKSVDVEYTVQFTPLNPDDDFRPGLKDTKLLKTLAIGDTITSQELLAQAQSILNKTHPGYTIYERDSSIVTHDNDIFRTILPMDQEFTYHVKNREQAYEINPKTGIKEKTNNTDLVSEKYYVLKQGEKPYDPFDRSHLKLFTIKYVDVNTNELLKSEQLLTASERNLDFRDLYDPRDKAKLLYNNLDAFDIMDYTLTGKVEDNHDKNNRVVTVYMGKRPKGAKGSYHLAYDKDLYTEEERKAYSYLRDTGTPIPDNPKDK

[1] = target: T2, Neuropeptide Y receptor type 2 (Homo sapiens, UniProt P49146); experiment: Fluorescence-based cell-based high-throughput dose response assay for agonists of NPY-Y2. [Related pubchem assays: 1703 (Screening assay (CNGC inhibitors).), 1359 (Screening assay (NPY-Y2 potentiators or agonists).), 1304 (Screening assay (NPY-Y1 potentiators or agonists).), 1710 (Screening assay (NPY-Y2 agonists).), 1791 (Summary AID.)]; format: functional
T2 sequence (P49146 whole entry): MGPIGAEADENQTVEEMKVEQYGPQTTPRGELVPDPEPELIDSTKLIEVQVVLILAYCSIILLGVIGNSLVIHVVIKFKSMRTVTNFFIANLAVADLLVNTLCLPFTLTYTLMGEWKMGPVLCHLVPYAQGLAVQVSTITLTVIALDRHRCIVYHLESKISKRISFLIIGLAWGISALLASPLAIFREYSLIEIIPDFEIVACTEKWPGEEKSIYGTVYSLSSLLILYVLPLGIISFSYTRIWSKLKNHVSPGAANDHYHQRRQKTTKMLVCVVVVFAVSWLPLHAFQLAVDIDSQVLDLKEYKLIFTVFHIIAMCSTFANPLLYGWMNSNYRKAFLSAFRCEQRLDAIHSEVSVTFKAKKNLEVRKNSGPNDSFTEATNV

[2] = target: T3, Replicative DNA helicase DnaB (Mycobacterium tuberculosis, UniProt P9WMR3); experiment: DnaB intein splicing inhibitors, dose response, biochemical, cell-free fluorescence (AID 449749); format: functional
T3 sequence (P9WMR3 whole entry): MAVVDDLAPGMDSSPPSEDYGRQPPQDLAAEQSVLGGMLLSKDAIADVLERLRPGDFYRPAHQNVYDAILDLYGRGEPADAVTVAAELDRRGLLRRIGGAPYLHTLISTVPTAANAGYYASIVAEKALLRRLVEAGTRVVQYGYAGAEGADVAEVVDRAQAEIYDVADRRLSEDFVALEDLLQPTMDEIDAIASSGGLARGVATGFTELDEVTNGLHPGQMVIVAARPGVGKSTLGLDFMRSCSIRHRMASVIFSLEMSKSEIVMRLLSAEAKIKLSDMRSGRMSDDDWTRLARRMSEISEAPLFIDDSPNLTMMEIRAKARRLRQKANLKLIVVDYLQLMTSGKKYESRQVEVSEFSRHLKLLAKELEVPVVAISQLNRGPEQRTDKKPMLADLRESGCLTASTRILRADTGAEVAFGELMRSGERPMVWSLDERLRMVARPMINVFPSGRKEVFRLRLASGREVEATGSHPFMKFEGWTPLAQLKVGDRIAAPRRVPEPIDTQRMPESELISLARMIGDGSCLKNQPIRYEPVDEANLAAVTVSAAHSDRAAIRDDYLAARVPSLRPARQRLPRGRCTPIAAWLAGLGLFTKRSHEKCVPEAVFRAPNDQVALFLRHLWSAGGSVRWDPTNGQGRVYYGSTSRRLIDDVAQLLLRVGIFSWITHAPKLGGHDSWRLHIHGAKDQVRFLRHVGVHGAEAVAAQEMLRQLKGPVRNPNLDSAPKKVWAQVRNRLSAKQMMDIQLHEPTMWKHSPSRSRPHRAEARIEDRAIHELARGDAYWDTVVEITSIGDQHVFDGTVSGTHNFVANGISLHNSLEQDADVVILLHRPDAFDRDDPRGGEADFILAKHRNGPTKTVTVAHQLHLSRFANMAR

Protein RecA = target: T4, Protein RecA (Mycobacterium tuberculosis, UniProt P9WHJ3); experiment: Fluorescence Cell-Free Homogeneous Dose Retest to Identify Inhibitors of RecA-Intein Splicing Activity. [Related pubchem assays (depositor defined):AID2097, AID2223, AID489010, AID492950]; format: functional
T4 sequence (P9WHJ3 whole entry): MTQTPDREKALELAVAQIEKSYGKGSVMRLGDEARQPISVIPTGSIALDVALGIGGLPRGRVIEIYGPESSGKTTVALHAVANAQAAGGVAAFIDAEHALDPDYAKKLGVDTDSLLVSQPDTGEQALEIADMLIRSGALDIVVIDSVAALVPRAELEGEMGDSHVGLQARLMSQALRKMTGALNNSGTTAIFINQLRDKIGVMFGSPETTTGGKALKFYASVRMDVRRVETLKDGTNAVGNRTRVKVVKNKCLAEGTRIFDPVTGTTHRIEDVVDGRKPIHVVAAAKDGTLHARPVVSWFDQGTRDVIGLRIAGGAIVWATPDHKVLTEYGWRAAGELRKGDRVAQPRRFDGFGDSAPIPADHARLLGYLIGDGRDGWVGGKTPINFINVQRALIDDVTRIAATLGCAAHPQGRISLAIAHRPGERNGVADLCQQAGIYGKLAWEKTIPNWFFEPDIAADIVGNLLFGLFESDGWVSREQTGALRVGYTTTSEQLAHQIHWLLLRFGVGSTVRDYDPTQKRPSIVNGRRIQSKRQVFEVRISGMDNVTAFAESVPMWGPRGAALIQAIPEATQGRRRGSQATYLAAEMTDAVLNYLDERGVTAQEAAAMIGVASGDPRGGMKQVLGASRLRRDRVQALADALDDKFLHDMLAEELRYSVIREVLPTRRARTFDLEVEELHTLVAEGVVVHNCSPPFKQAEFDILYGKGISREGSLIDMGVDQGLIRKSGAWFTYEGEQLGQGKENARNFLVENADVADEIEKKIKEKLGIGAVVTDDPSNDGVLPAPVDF

[3] = target: T5, Neuropeptide Y receptor type 1 (Homo sapiens, UniProt P25929); experiment: Fluorescence-based counterscreen for agonists of NPY-Y2: cell-based high-throughput dose response assay for agonists of NPY-Y1.; format: functional
T5 sequence (P25929 whole entry): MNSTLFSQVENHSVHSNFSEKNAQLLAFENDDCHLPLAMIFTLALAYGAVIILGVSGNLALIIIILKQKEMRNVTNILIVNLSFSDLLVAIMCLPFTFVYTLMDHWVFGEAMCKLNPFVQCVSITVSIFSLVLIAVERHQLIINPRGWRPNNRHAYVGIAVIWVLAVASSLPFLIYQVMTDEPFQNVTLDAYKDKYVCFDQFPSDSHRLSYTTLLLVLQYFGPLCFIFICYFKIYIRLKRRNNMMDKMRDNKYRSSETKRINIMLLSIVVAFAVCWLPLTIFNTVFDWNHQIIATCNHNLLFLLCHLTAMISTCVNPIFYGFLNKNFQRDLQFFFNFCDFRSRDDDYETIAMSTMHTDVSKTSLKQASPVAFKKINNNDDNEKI

[4] = target: NAD-dependent protein deacylase sirtuin-5, mitochondrial (Homo sapiens, UniProt Q9NXA8); experiment: SIRT5 desuccinylase inhibitors, dose response, biochemical, fluorescence imaging, cherry-pick, set 5 (AID 720591);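 further: desuccinylation of succinyl peptide AMC substrate read as fluorescence after trypsin release; potency of inhibitors that lower fluorescence and may act on trypsin instead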
Sequence of NAD-dependent protein deacylase sirtuin-5, mitochondrial (Q9NXA8 whole entry): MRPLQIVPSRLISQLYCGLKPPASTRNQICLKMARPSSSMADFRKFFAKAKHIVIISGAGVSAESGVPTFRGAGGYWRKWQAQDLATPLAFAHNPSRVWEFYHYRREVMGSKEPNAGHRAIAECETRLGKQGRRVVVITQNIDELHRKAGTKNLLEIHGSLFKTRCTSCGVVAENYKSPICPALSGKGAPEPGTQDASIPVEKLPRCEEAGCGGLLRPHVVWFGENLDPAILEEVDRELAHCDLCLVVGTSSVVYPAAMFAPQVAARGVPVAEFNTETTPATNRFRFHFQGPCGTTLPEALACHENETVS

[5] = HeLa cell cytotoxicity, dose response, cytotoxicity control for MgcRacGAP inhibitor project (AID 624300); format: functional
[6] = target: T6, Rac GTPase-activating protein 1 (Homo sapiens, UniProt Q9H0H5); experiment: MgcRacGAP GTPase-activating activity inhibitors, confirmation, biochemical, ADP Hunter fluorescence, primary and confirmatory (AID 624330); format: functional
T6 sequence (Q9H0H5 whole entry): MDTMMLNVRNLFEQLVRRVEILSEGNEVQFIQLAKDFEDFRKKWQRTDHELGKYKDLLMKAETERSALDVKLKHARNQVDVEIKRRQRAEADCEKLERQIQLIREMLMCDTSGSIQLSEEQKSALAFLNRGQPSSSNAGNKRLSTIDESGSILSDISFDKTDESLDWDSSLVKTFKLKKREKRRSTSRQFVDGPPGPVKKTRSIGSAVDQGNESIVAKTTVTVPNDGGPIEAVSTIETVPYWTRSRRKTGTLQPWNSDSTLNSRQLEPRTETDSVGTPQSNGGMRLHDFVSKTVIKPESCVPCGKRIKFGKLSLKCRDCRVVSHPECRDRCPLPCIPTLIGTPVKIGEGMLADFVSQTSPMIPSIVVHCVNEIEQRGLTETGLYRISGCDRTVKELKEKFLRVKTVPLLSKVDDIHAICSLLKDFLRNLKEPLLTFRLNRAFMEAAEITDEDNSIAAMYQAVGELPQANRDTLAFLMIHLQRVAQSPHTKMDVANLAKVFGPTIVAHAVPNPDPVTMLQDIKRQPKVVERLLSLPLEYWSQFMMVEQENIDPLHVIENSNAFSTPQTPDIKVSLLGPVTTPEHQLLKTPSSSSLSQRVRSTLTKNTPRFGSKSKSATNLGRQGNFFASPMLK

[7] = HEp-2 cell cytotoxicity, dose response, cytotoxicity control for RSV inhibitor project, HTS (AID 2410); format: functional; details: human respiratory syncytial virus
Prothrombin = Prothrombin (Homo sapiens, UniProt P00734); experiment: Thrombin 1536 HTS Dose Response Confirmation. [Related pubchem assays: 1046 (Thrombin 1536 HTS; hits were confirmed in this assay)]; format: functional
[8] = P. falciparum Dd2 growth inhibitors, dose response, SYBR Green, cherry-picked samples (AID 1159567); format: functional, cell-based
[9] = P. falciparum 3D7-ScDHODH growth inhibitors, dose response, SYBR Green, dry powder samples (AID 1159570); format: functional, cell-based;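 further: parasite growth measured after 72 hours of compound exposure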
[10] = P. falciparum ATP4 D1247Y mutant growth inhibitors, dose response, NITD609-resistant line, SYBR Green, dry powder (AID 1159571); format: functional, cell-based;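 further: parasites synchronized at ring stage by sorbitol before testing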
[11] = P. falciparum Dd2 growth inhibitors, dose response, SYBR Green, dry powder samples (AID 1159566); format: functional, cell-based;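 further: potency for growth inhibition with lower SYBR green DNA signal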
[12] = system: Streptococcus sp. 'group A'; experiment: growth inhibition of control SK(-) GAS strain, dose response, counter-screen for streptokinase expression inhibitor project, luminescence, kanamycin, BacTiterGlo, confirmation (AID 1900); format: functional, organism-based
HEK293 = experiment: Fluorescence-based counterscreen for potentiators or agonists of NPY-Y2: cell-based high-throughput dose response assay to identify inhibitors of cyclic nucleotide gated ion channel (CNGC) activity. In this assay, the parental HEK293 cell line transfected with a cyclic-nucleotide gated ion channel (CNGC)-based cAMP sensor is used to measure inhibition of isoproterenol-induced CNGC activity by test compound.; format: functional; details: Homo sapiens;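 further: stimulus is 1 µM isoproterenol at EC100 plus PDE inhibitor Ro 20-1724 at 25 µM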
Streptococcus = experiment: Group A Streptococcus viability loss, dose response, counter-screen for streptokinase expression inhibitor project, luminescence, BacTiterGlo (AID 1915); format: functional, organism-based;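 further: potency for reduction of bacterial viability or growth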

CC(=O)C(=NNc1cccc(Cl)c1)Nc1ccc(Cl)cc1Cl
EC50 (Streptokinase A): 2.72 µM (active) | EC50 [1]: 21.2 µM (not active) | AC50 [2]: 379 µM (active) | EC50 (Protein RecA): 49 µM (active) | EC50 [3]: 12.6 µM (not active)

CCN(CC)c1ccc(S(=O)(=O)N2CCOCC2)cc1NC(=O)CN1CCN(Cc2ccccc2)CC1
AC50 [4]: 18.1 µM (active) | CC50 [5]: 100 µM (active) | IC50 [6]: 84.5 µM (active)

Nc1ccc(Br)c[n+]1Cc1cccc2cccnc12
IC50 (cells): 46.7 µM (active) | CC50 [7]: > 50 µM (active)

CCOC(=O)c1ccc(NC(=O)NC2CCN(CC(=O)NCc3ccc4c(c3)OCO4)CC2)cc1
IC50 (Prothrombin): > 50 µM (not active)

C/C=C/c1ccccc1[C@H]1[C@@H](C#N)N(C(=O)NC2CCCC2)[C@H]1CO
AC50 [8]: 1.85 µM (active) | AC50 [9]: 33.8 µM (active) | AC50 [10]: 1.58 µM (active) | AC50 [11]: 0.952 µM (active)

Cc1ccc(C)c(NC(=O)C2Cc3ccccc3CN2C(=O)OCc2ccccc2)c1 (stereo unspecified)
IC50 (Prothrombin): > 50 µM (not active)

O=C1c2ccccc2C(=O)N1CCCCN(C(=O)c1ccco1)c1ccc(Cl)cc1
IC50 (cells): 11.8 µM (active)

CC(=O)C(=Nc1ccc(Cl)cc1Cl)NNc1cccc(Cl)c1
EC50 [12]: 3.14 µM (active) | EC50 (HEK293): > 35.4 µM (not active) | EC50 (Streptococcus): > 150 µM (not active)

Cc1ccc(C(=O)n2nc(-c3ccco3)nc2N)cc1
IC50 (Prothrombin): 0.741 µM (active)
